The assay deals with Ba/F3-INSR xenograft. Description: Xenograft tumor growth inhibition. The class given is in vivo, mice. From the text: Six week old female NCr nu/nu mice (for SNU-16) or CB-17 SCID female mice (for NCI-H716 and BaF3 models) were purchased from Taconic Farms (Germantown, NY) and allowed to acclimate for greater than 2 weeks. Mice were housed in sterile micro isolator cages with 5 mice per cage and were received food and water ad libitum. Tumor cells were suspended in 50% Matrigel (lot# A9618-BD, Bioscience) and sterile Hanks Balanced Salt Solution (HBSS) for the NCI-H716 model or in HBSS alone for SNU-16. Each mouse was implanted subcutaneously with 5x10^6 cells (SNU-16) or 8x10^6 cells (NCI-H716) or 2x10^6 cells (BaF3) to the upper right flank area. Tumor measurements and body weights were collected two to three times per week with electronic calipers and balance. Tumor weight (mg) was calculated from the equation: length x (width)^2/2. This formula was used to calculate tumor volume assuming unit density 1 mg = 1 mm^3. Treatment was initiated when tumor burden was between 100–200 mgs. Percent inhibition or tumor growth inhibition (TGI) was calculated using the following formula: 100-[mean tumor value of treated / mean tumor value of control] x 100.
Plasma and tumor samples were collected 4 hours post single dose. […] Dosing volume for all groups was 10 mL/kg or 0.1 mL/10 g body weight.

SMILES strings stand for the structures.

For the molecule `CC[C@]1(O)C[C@@H]2CN(CCc3c([nH]c4ccccc34)[C@@](C(=O)OC)(c3cc4c(cc3OC)N(C)[C@H]3[C@@](O)(C(=O)OC)[C@H](OC(C)=O)[C@]5(CC)C=CCN6CC[C@]43[C@@H]65)C2)C1` [Vinblastine], the T/C came to 100.48 (10 mg/kg IV Q5Dx2, Day 10); 42.10 (10 mg/kg IV Q5Dx2, Day 13); 37.24 (10 mg/kg IV Q5Dx2, Day 15); 11.60 (10 mg/kg IV Q5Dx2, Day 17); 2.84 (10 mg/kg IV Q5Dx2, Day 20). Besides, the “Tumor Weights (mg), MEAN” value is, setting by setting: (10 mg/kg IV Q5Dx2, Day 10) 230.70 mg; (10 mg/kg IV Q5Dx2, Day 13) 256.70 mg; (10 mg/kg IV Q5Dx2, Day 15) 325.90 mg; (10 mg/kg IV Q5Dx2, Day 17) 196.60 mg; (10 mg/kg IV Q5Dx2, Day 20) 69.22 mg.

For the origin of these results see publication PMC5023172, “Preclinical Activity of ARQ 087, a Novel Inhibitor Targeting FGFR Dysregulation” (PLoS ONE, 2016).
